What was measured:
Experiment in all cases: viability relative to DMSO control (fraction); higher = less drug effect (more viable cells)
Conditions in all cases: 48 h
[1] = tested on: primary MCL patient cells (S053)
Procedure, shortened: (§1)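 Using 384-well plates with compounds already plated at five concentrations, one well per concentration, 4 × 10^4 primary mononuclear tumour cells were added per well. Cells were Ficoll-isolated from blood or bone marrow or came from processed lymph node, fresh or cryopreserved. They were kept for 48 h at 37 °C and 5% CO2 in RPMI-1640 supplemented with penicillin/streptomycin, L-glutamine and human serum, and viability was read as CellTiter-Glo luminescence relative to the median of 16 inner DMSO wells.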

[2] = tested on: primary AML patient cells (S055)
Procedure, shortened: as §1

[3] = tested on: primary AML patient cells (S037)
Procedure, shortened: as §1

[4] = tested on: primary BL patient cells (S005)
Procedure, shortened: as §1

[5] = tested on: primary DLBCL patient cells (S082)
Procedure, shortened: as §1

[6] = tested on: primary AML patient cells (S002)
Procedure, shortened: as §1

[7] = tested on: primary CLL patient cells (S043)
Procedure, shortened: as §1

[8] = tested on: primary AML patient cells (S025)
Procedure, shortened: as §1

[9] = tested on: primary AML patient cells (S091)
Procedure, shortened: as §1

[10] = tested on: primary AML patient cells (S060)
Procedure, shortened: as §1

[11] = tested on: primary B-PLL patient cells (S016)
Procedure, shortened: as §1

[12] = tested on: primary AML patient cells (S089)
Procedure, shortened: as §1

[13] = tested on: primary MCL patient cells (S068)
Procedure, shortened: as §1

[14] = tested on: primary AML patient cells (S009)
Procedure, shortened: as §1

[15] = tested on: primary AML patient cells (S021)
Procedure, shortened: as §1

[16] = tested on: primary AML patient cells (S071)
Procedure, shortened: as §1

[17] = tested on: primary AML patient cells (S017)
Procedure, shortened: as §1

[18] = tested on: primary T-PLL patient cells (S008)
Procedure, shortened: as §1

[19] = tested on: primary AML patient cells (S081)
Procedure, shortened: as §1

[20] = tested on: primary AML patient cells (S072)
Procedure, shortened: as §1

Nc1ccn([C@@H]2O[C@H](CO)[C@@H](O)[C@@H]2O)c(=O)n1 [Cytarabine]
viability ([1]; 0.032 µM): 1.01 | viability ([1]; 0.16 µM): 0.754 | viability ([1]; 0.8 µM): 0.327 | viability ([1]; 4 µM): 0.195 | viability ([1]; 20 µM): 0.136 | viability ([2]; 0.032 µM): 1.02 | viability ([2]; 0.16 µM): 1.08 | viability ([2]; 0.8 µM): 0.818 | viability ([2]; 4 µM): 0.346 | viability ([2]; 20 µM): 0.189 | viability ([3]; 0.032 µM): 1.08 | viability ([3]; 0.16 µM): 1.03 | viability ([3]; 0.8 µM): 1.02 | viability ([3]; 4 µM): 0.666 | viability ([3]; 20 µM): 0.467 | viability ([4]; 0.032 µM): 1.03 | viability ([4]; 0.16 µM): 1.02 | viability ([4]; 0.8 µM): 0.98 | viability ([4]; 4 µM): 0.969 | viability ([4]; 20 µM): 0.893 | viability ([5]; 0.032 µM): 1.08 | viability ([5]; 0.16 µM): 0.974 | viability ([5]; 0.8 µM): 0.702 | viability ([5]; 4 µM): 0.522 | viability ([5]; 20 µM): 0.484 | viability ([6]; 0.032 µM): 1.04 | viability ([6]; 0.16 µM): 0.899 | viability ([6]; 0.8 µM): 0.607 | viability ([6]; 4 µM): 0.317 | viability ([6]; 20 µM): 0.26 | viability ([7]; 0.032 µM): 1.1 | viability ([7]; 0.16 µM): 0.975 | viability ([7]; 0.8 µM): 0.707 | viability ([7]; 4 µM): 0.236 | viability ([7]; 20 µM): 0.0952 | viability ([8]; 0.032 µM): 1.02 | viability ([8]; 0.16 µM): 0.877 | viability ([8]; 0.8 µM): 0.649 | viability ([8]; 4 µM): 0.324 | viability ([8]; 20 µM): 0.112 | viability ([9]; 0.032 µM): 0.974 | viability ([9]; 0.16 µM): 0.858 | viability ([9]; 0.8 µM): 0.694 | viability ([9]; 4 µM): 0.513 | viability ([9]; 20 µM): 0.409 | viability ([10]; 0.032 µM): 1.09 | viability ([10]; 0.16 µM): 1.02 | viability ([10]; 0.8 µM): 1.01 | viability ([10]; 4 µM): 0.505 | viability ([10]; 20 µM): 0.132 | viability ([11]; 0.032 µM): 1.11 | viability ([11]; 0.16 µM): 0.733 | viability ([11]; 0.8 µM): 0.145 | viability ([11]; 4 µM): 0.0425 | viability ([11]; 20 µM): 0.0373 | viability ([12]; 0.032 µM): 1.1 | viability ([12]; 0.16 µM): 0.993 | viability ([12]; 0.8 µM): 0.783 | viability ([12]; 4 µM): 0.142 | viability ([12]; 20 µM): 0.0678 | viability ([13]; 0.032 µM): 1.1 | viability ([13]; 0.16 µM): 1.01 | viability ([13]; 0.8 µM): 0.807 | viability ([13]; 4 µM): 0.38 | viability ([13]; 20 µM): 0.209 | viability ([14]; 0.032 µM): 1.04 | viability ([14]; 0.16 µM): 0.96 | viability ([14]; 0.8 µM): 0.82 | viability ([14]; 4 µM): 0.521 | viability ([14]; 20 µM): 0.383 | viability ([15]; 0.032 µM): 1.03 | viability ([15]; 0.16 µM): 1.1 | viability ([15]; 0.8 µM): 0.882 | viability ([15]; 4 µM): 0.849 | viability ([15]; 20 µM): 0.419 | viability ([16]; 0.032 µM): 0.891 | viability ([16]; 0.16 µM): 0.797 | viability ([16]; 0.8 µM): 0.64 | viability ([16]; 4 µM): 0.257 | viability ([16]; 20 µM): 0.172 | viability ([17]; 0.032 µM): 1.11 | viability ([17]; 0.16 µM): 1.07 | viability ([17]; 0.8 µM): 1.15 | viability ([17]; 4 µM): 0.665 | viability ([17]; 20 µM): 0.303 | viability ([18]; 0.032 µM): 1.05 | viability ([18]; 0.16 µM): 0.968 | viability ([18]; 0.8 µM): 0.876 | viability ([18]; 4 µM): 0.434 | viability ([18]; 20 µM): 0.209 | viability ([19]; 0.032 µM): 1.1 | viability ([19]; 0.16 µM): 1.07 | viability ([19]; 0.8 µM): 1.14 | viability ([19]; 4 µM): 0.884 | viability ([19]; 20 µM): 0.4 | viability ([20]; 0.032 µM): 1.14 | viability ([20]; 0.16 µM): 1.06 | viability ([20]; 0.8 µM): 0.995 | viability ([20]; 4 µM): 0.774 | viability ([20]; 20 µM): 0.458

From the supplement of paper PMC10733146
